The record followed here is patent US8846733B2, “Oxazolyl-methylether derivatives as ALX receptor agonists” (Actelion Pharmaceuticals Ltd., priority 2010, dated 2014).

Each structure is given as a SMILES string. Where only a bound is given, the exact number is not on record here.

Series [1] is described as follows: Plasma stability assay, rat plasma. The class given is in vitro ADME. The conditions noted are these: for half-life at 1 μM: pH 7.4, 37° C. The procedure:
(§1) Rat or human plasma adjusted at pH 7.4 with lactic acid or ammonium hydroxide, were equilibrated at 37° C. under orbital shaking in an incubator containing 5% CO2. The reaction was initiated by the addition of 1 μM of compounds (1 μl of 1 mM stock solution in DMSO in 999 μl of plasma). At 0.01 h, 0.25 h, 0.5 h, 1 h, 2 h, 4 h, 6 h and 24 h, aliquots (30 μl) were transferred in a 96 well plate containing 90 μl MeOH placed on ice to stop the reaction. After vortexing for 20 min at 1400 rpm on an Eppendorf thermomixer, the plates were centrifuged at 3220 g for 20 min at 4° C. and the supernatants were analyzed with LC-MSMS. Calibration samples in plasma containing 0.1% of dichlorvos were prepared and analysed in parallel to the incubation samples to allow the quantification. Half lives in hours were then calculated. In addition the remaining concentration of the respective compound after time Tlast relative to the concentration at the beginning has been determined (table 3).

The target in series [2] is T1, recombinant human ALX receptor (Homo sapiens, UniProt P25090).
T1 construct: expressed in transfected cells; host or cells: HEK293 (HEK293-hALXR-Gα16)
T1 sequence (P25090 1-351): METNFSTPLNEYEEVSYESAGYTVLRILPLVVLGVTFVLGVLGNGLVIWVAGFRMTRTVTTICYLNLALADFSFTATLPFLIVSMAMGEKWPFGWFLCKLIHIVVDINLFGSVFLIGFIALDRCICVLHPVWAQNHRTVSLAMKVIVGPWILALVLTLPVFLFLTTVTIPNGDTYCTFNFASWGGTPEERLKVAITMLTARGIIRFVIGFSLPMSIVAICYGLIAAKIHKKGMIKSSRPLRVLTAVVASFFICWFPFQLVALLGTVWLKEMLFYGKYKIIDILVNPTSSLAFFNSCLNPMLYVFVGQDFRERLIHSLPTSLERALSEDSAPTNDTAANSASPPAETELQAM
The series can be described thus: Intracellular calcium measurements (FLIPR), ALX receptor agonistic activity. In kind it is cell-based. The conditions noted are these: HEK293-hALXR-Gα16 cells; Table 1, exemplified compounds. The procedure: The ALX receptor agonistic activity of the compounds of formula (I) is determined in accordance with the following experimental method.
Intracellular Calcium Measurements:
Cells expressing recombinant human ALX receptor and the G-protein Gα16 (HEK293-hALXR-Gα16) were grown to 80% confluency in Growing Medium (GM). Cells were detached from culture dishes with a cell dissociation buffer (Invitrogen, 13151-014), and collected by centrifugation at 1,000 rpm at rt for 5 min in Assay Buffer (AB) (equal parts of Hank's BSS (Gibco, 14065-049) and DMEM without Phenol Red (Gibco, 11880-028)). After 60 min incubation at 37° C. under 5% CO2 in AB supplemented with 1 μM Fluo-4 (AM) (Invitrogen, F14202) and 20 mM HEPES (Gibco, 15630-056), the cells were washed and resuspended in AB. They were then seeded onto 384-well FLIPR assay plates (Greiner, 781091) at 50,000 cells in 70 μl per well and sedimented by centrifugation at 1,000 rpm for 1 min. Stock solutions of test compounds were made up at a concentration of 10 mM in DMSO, and serially diluted in AB to concentrations required for activation dose response curves. WKYMVm (Phoenix Peptides) was used as a reference agonist. A FLIPR Tetra instrument (Molecular Devices) was operated according to the manufacturer's standard instructions, adding 4 μl of test compound dissolved at 10 mM in DMSO and diluted prior to the experiment in assay buffer to obtain the desired final concentration. Changes in fluorescence were monitored before and after the addition of test compounds at lex=488 nm and lem=540 nm. Emission peak values above base level after compounds addition were exported after base line subtraction. Values were normalized to high-level control (WKYMVm compound, 10 nM final concentration) after subtraction of the base line value (AB addition).
(A change in cytosolic calcium serves as a functional read-out for many receptors and channels.)

The nature of series [3]: Plasma stability assay, human plasma. The class given is in vitro ADME. Particulars: for remaining concentration at Tlast / half-life at 1 μM: human plasma; for half-life at 1 μM: pH 7.4, 37° C. The procedure: as §1
A short description of series [4]: Plasma stability assay with tritiated compounds, rat plasma. In kind it is in vitro ADME. The procedure: (§2) Rat or human plasma adjusted at pH 7.4 with lactic acid were equilibrated at 37° C. under orbital shaking. The reaction was initiated by the addition of 10 μM of tritiated compound (7.5 μl of 1 mM stock solution in DMSO in 742.5 μl of plasma). At the beginning and after 4 h, 6 h and 24 h, aliquots (100 μl) were transferred in a tube containing 400 μl MeOH placed on ice to stop the reaction. After vortexing for 20 min at 1400 rpm on an Eppendorf thermomixer, the plates were centrifuged at 3220 g for 20 min at 4° C. and an aliquot of supernatants was analyzed with liquid chromatography coupled to a H3-radiodetector. The remaining pellet was further extracted with AcCN in three additional cycles of resuspension, mixing 20 min at 2000 rpm on an eppendorf thermomixer and centrifugation (3220 g for 20 min at 4° C.). The total radioactivity was measured in the collected supernatants. The final pellet was then solubilized in NaOH 1N and the total radioactivity was measured (table 4).

A short description of series [5]: Plasma stability assay with tritiated compounds, human plasma. The class given is in vitro ADME. The procedure:
as §2

`COCc1coc(Cn2ncc(NC(=O)c3nc(C)oc3-c3cccc(C)c3)n2)n1` [Example 2, N-(2-((4-(Methoxymethyl)oxazol-2-yl)methyl)-2H-1,2,3-triazol-4-yl)-2-methyl-5-(m-tolyl)oxazole-4-carboxamide]: the “remaining concentration at Tlast” value in series [1] (Tlast 24 h) amounted to 88%; in series [3] (Tlast 24 h), 101%. The half-life at 1 μM in series [1] and in series [3] was > 24 h each time. In addition, the EC50 in series [2] worked out at 1.7 nM. For the same compound, the “stability in plasma, in words” value in series [3] (rat and human plasma, compared with reference compound 11 / compounds of WO 2009/077990) is on record as “remarkably more stable”.

With `CC(=O)c1coc(Cn2ncc(NC(=O)c3nc(C)oc3-c3cccc(C)c3)n2)n1` [reference compound 11, N-(2-((4-acetyloxazol-2-yl)methyl)-2H-1,2,3-triazol-4-yl)-2-methyl-5-(m-tolyl)oxazole-4-carboxamide], the results for the “remaining concentration at Tlast” value in series [1] (Tlast 6 h) and in series [3] (Tlast 6 h) were 42% and 18%, respectively. Besides, the half-life at 1 μM in series [1] is 4.7 h; in series [3], 2.4 h. Besides, the total radioactivity in series [4] (rat plasma pellet, nominal incubation time 0.01 h) came out at 419 dpm; in series [4] (rat plasma pellet, nominal incubation time 4.0 h) it was 124853 dpm; in series [4] (rat plasma pellet, nominal incubation time 6.4 h), 153683 dpm; in series [4] (rat plasma pellet, nominal incubation time 24.4 h), 180032 dpm; in series [4] (rat plasma supernatant, nominal incubation time 0.01 h, 10 μM tritiated compound), 173116 dpm; in series [4] (rat plasma supernatant, nominal incubation time 4.0 h) it was 94798 dpm. For the same compound, the total radioactivity turned out to be 45228 dpm in series [4] (rat plasma supernatant, nominal incubation time 6.4 h); 4816 dpm in series [4] (rat plasma supernatant, nominal incubation time 24.4 h); 918 dpm in series [5] (human plasma pellet, nominal incubation time 0.01 h); 170136 dpm in series [5] (human plasma pellet, nominal incubation time 4.0 h); 185420 dpm in series [5] (human plasma pellet, nominal incubation time 6.4 h); 227567 dpm in series [5] (human plasma pellet, nominal incubation time 24.4 h). Besides, the total radioactivity stood at 158854 dpm in series [5] (human plasma supernatant, nominal incubation time 0.01 h, 10 μM tritiated compound); 38918 dpm in series [5] (human plasma supernatant, nominal incubation time 4.0 h); 10532 dpm in series [5] (human plasma supernatant, nominal incubation time 6.4 h); 3134 dpm in series [5] (human plasma supernatant, nominal incubation time 24.4 h). Also, in series [5] (rat and human plasma, tritiated compound, radioactivity moving from supernatant to pellet), the “association of drug related material with plasma proteins, in words” value was “strong association of drug related material with plasma proteins”.

By half-life is commonly meant the time in which the quantity being followed falls by half. As usually defined, the EC50 is the concentration at which the effect is half-maximal.
